Measurements reported in ChEMBL document CHEMBL3352110, “Design, synthesis and in vitro evaluation of novel dehydroabietic acid derivatives containing a dipeptide moiety as potential anticancer agents” (Eur J Med Chem, 2015).
Calls of active or inactive are those of the source. The rule behind the calls is not given here.

Tests used:
HeLa [1] = assay: Induction of apoptosis in human HeLa cells assessed as ROS generation at 10 to 15 uM after 12 hrs by DCF-Da staining-based fluorescence microscopy relative to control; type: functional, cell-based
HeLa [2] = assay: Induction of cytochrome C release in human HeLa cells assessed as nuclei conglomeration at 10 to 15 uM after 12 hrs by fluorescence microscopy relative to control; type: functional, cell-based
HeLa [3] = assay: Induction of apoptosis in human HeLa cells assessed as viable cells at 15 uM after 12 hrs by Anexin-V-FITC/propidium iodide staining-based flow cytometry (reference value: 97.2%); type: functional; conditions: read-out: Activity
HeLa [4] = assay: Cell cycle arrest in human HeLa cells assessed as accumulation at G1 phase at 10 uM after 48 hrs by propidium iodide stainin-based flow cytometry (reference value: 31.44%); type: functional
HeLa [5] = assay: Induction of apoptosis in human HeLa cells assessed as increase in caspase-3 expression at 10 to 15 uM by Western blotting analysis relative to control; type: functional, cell-based
HeLa [6] = assay: Induction of cytochrome C release in human HeLa cells assessed as karyopyknosis at 10 to 15 uM after 12 hrs by fluorescence microscopy relative to control; type: functional, cell-based
HeLa [7] = assay: Induction of apoptosis in human HeLa cells assessed as DNA fragmentation at 15 uM after 12 to 24 hrs by TUNEL assay relative to control; type: functional, cell-based
HeLa [8] = assay: Induction of apoptosis in human HeLa cells assessed as chromatin fragmentation at 15 uM after 12 to 24 hrs by acridine orange/ethidium bromide staining-based assay relative to control; type: functional, cell-based
HeLa [9] = assay: Cell cycle arrest in human HeLa cells assessed as accumulation at G2 phase at 10 uM after 48 hrs by propidium iodide stainin-based flow cytometry (reference value: 5.84%); type: functional
HeLa [10] = assay: Induction of apoptosis in human HeLa cells assessed as early apoptotic cells at 15 uM after 12 hrs by Anexin-V-FITC/propidium iodide staining-based flow cytometry (reference value: 1.40%); type: functional
HeLa [11] = assay: Induction of apoptosis in human HeLa cells assessed as late apoptotic cells at 10 uM after 12 hrs by Anexin-V-FITC/propidium iodide staining-based flow cytometry (reference value: 0.04%); type: functional
HeLa [12] = assay: Induction of apoptosis in human HeLa cells assessed as reduction in Bcl2 expression by Western blotting analysis relative to control; type: functional, cell-based
HeLa [13] = assay: Induction of apoptosis in human HeLa cells assessed as dead cells at 10 uM after 12 hrs by Anexin-V-FITC/propidium iodide staining-based flow cytometry (reference value: 1.40%); type: functional
HeLa [14] = assay: Induction of apoptosis in human HeLa cells at 15 uM after 12 to 24 hrs by Hoechst 33258 staining-based assay relative to control; type: functional, cell-based
HeLa [15] = assay: Cell cycle arrest in human HeLa cells assessed as accumulation at G2 phase at 15 uM after 48 hrs by propidium iodide stainin-based flow cytometry (reference value: 5.84%); type: functional
HeLa [16] = assay: Cell cycle arrest in human HeLa cells assessed as accumulation at G1 phase at 15 uM after 48 hrs by propidium iodide stainin-based flow cytometry (reference value: 31.44%); type: functional
HeLa [17] = assay: Induction of apoptosis in human HeLa cells assessed as change in mitochondrial membrane potential at 15 uM after 12 to 24 hrs by JC-1 staining-based assay relative to control; type: functional, cell-based
HeLa [18] = assay: Induction of apoptosis in human HeLa cells assessed as apoptosis ratio at 15 uM after 12 hrs by Anexin-V-FITC/propidium iodide staining-based flow cytometry (reference value: 1.44%); type: functional
HeLa [19] = assay: Induction of apoptosis in human HeLa cells assessed as early apoptotic cells at 10 uM after 12 hrs by Anexin-V-FITC/propidium iodide staining-based flow cytometry (reference value: 1.40%); type: functional
HeLa [20] = assay: Induction of apoptosis in human HeLa cells assessed as caspase-3 activation by spectrophotometry relative to control; type: functional, cell-based; conditions: TDE = time-dependent effect
HeLa [21] = assay: Induction of apoptosis in human HeLa cells assessed as dead cells at 15 uM after 12 hrs by Anexin-V-FITC/propidium iodide staining-based flow cytometry (reference value: 1.40%); type: functional
MGC-803 = assay: Cytotoxicity against human MGC803 cells after 48 hrs by MTT assay; type: functional, cell-based; conditions: MGC-803, 48 h
HeLa [22] = assay: Induction of apoptosis in human HeLa cells assessed as increase in caspase-8 expression at 10 to 15 uM by Western blotting analysis relative to control; type: functional, cell-based
HeLa [23] = assay: Cytotoxicity against human HeLa cells after 48 hrs by MTT assay; type: functional, cell-based
HeLa [24] = assay: Induction of apoptosis in human HeLa cells assessed as late apoptotic cells at 15 uM after 12 hrs by Anexin-V-FITC/propidium iodide staining-based flow cytometry (reference value: 0.04%); type: functional
HeLa [25] = assay: Cell cycle arrest in human HeLa cells assessed as accumulation at S phase at 15 uM after 48 hrs by propidium iodide stainin-based flow cytometry (reference value: 67.72%); type: functional
HeLa [26] = assay: Induction of apoptosis in human HeLa cells assessed as viable cells at 10 uM after 12 hrs by Anexin-V-FITC/propidium iodide staining-based flow cytometry (reference value: 97.2%); type: functional; conditions: read-out: Activity
HeLa [27] = assay: Induction of apoptosis in human HeLa cells assessed as apoptosis ratio at 10 uM after 12 hrs by Anexin-V-FITC/propidium iodide staining-based flow cytometry (reference value: 1.44%); type: functional
HeLa [28] = assay: Cell cycle arrest in human HeLa cells assessed as accumulation at S phase at 10 uM after 48 hrs by propidium iodide stainin-based flow cytometry (reference value: 67.72%); type: functional
HeLa [29] = assay: Induction of apoptosis in human HeLa cells assessed as chromatin condensation at 15 uM after 12 to 24 hrs by acridine orange/ethidium bromide staining-based assay; type: functional, cell-based
HeLa [30] = assay: Induction of apoptosis in human HeLa cells assessed as increase in Bax expression at 10 to 15 uM by Western blotting analysis relative to control; type: functional, cell-based
NCI-H460 = assay: Cytotoxicity against human NCI-H460 cells after 48 hrs by MTT assay; type: functional, cell-based; conditions: NCI-H460, 48 h
[31] = Cytotoxicity against human HL7702 cells after 48 hrs by MTT assay; type: functional, cell-based; conditions: L02, 48 h
HeLa [32] = assay: Induction of apoptosis in human HeLa cells assessed as increase in cytochrome c expression at 10 to 15 uM by Western blotting analysis relative to control; type: functional, cell-based
HeLa [33] = assay: Induction of apoptosis in human HeLa cells assessed as caspase-9 activation by spectrophotometry relative to control relative to control; type: functional, cell-based; conditions: TDE = time-dependent effect

Structure (SMILES): CC(C)c1ccc2c(c1)C(=O)C[C@H]1[C@](C)(C(=O)N[C@@H](Cc3ccccc3)C(=O)Nc3ccccc3Cl)CCC[C@]21C
- Activity (HeLa [1]): Active
- Activity (HeLa [2]): Active
- viability at 15 µM (HeLa [3]): 64%
- Activity (HeLa [4]): 27.79%
- Activity (HeLa [5]): Active
- Activity (HeLa [6]): Active
- Activity (HeLa [7]): Active
- Activity (HeLa [8]): Active
- Activity (HeLa [9]): 4.8%
- Activity (HeLa [10]): 21.8%
- Activity (HeLa [11]): 6.93%
- Activity (HeLa [12]): Dose-dependent effect
- Activity (HeLa [13]): 0.677%
- Activity (HeLa [14]): Active
- Activity (HeLa [15]): 1.47%
- Activity (HeLa [16]): 15.49%
- Activity (HeLa [17]): Active
- Activity (HeLa [18]): 34.5%
- Activity (HeLa [19]): 13.6%
- Activity (HeLa [20]): tde
- Activity (HeLa [21]): 0.612%
- IC50 (MGC-803): 9.7 µM
- Activity (HeLa [22]): Active
- IC50 (HeLa [23]): 7.76 µM
- Activity (HeLa [24]): 13.7%
- Activity (HeLa [25]): 83.05%
- viability at 10 µM (HeLa [26]): 78.8%
- Activity (HeLa [27]): 20.53%
- Activity (HeLa [28]): 67.41%
- Activity (HeLa [29]): Active
- Activity (HeLa [30]): Active
- IC50 (NCI-H460): 24.3 µM
- IC50 [31]: 53.8 µM
- Activity (HeLa [32]): Active
- Activity (HeLa [33]): tde

Structure (SMILES): COc1cc(NC(=O)[C@H](Cc2ccccc2)NC(=O)[C@]2(C)CCC[C@]3(C)c4ccc(C(C)C)cc4/C(=N\O)C[C@@H]23)cc(OC)c1OC
- IC50 (MGC-803): 17.5 µM
- IC50 (HeLa [23]): 25.9 µM
- IC50 (NCI-H460): 36.6 µM
- IC50 [31]: 49.6 µM
